From patent publication US20050137261A1, “Method for treating inflammatory bowel diseases” (MEIJI DAIRIES CORPORATION, priority 2003, published 2005)

Tests used:
[1] = test system: dextran sodium sulfate (DSS) colitis; test: DSS colitis in mice: survival rate and HE-staining of the large intestine; assay type: in vivo, C57/BL6 Mice
Protocol: C57/BL6 Mice (female, 8 weeks old) were employed. They were bred under SPF conditions, and then used in the test. 2.5% Dextran sodium sulfate (DSS, MW 50,000) was added to drinking water (distilled water) for mice, and the mice were allowed to drink the resultant water freely for 7 days (induction of colitis). Subsequently, DHNA was administered to the mice in the following manner. DHNA was dissolved in dimethyl sulfoxide (DMSO) (0.1 g/0.5 mL). The resultant neat solution, along with ascorbic acid for stabilizing DHNA (1%), was added to drinking water (distilled water) for mice, and the mice were allowed to drink the resultant water freely for 7 days. DHNA concentration was 0.6 mg/kg or 2 mg/kg. Distilled water to which DMSO and ascorbic acid had been added in equal amounts was employed as a control group. Survival rate was that as determined for the mice on day 10 after starting administration of DHNA. The large intestine was removed from each mouse, and fixed with periodate-lysine-paraformaldehyde (PLP), whereby frozen slices were prepared. Through use of the thus-obtained frozen sections, immunohistochemical staining using labeled streptavidin-biotin (LSAB) and HE-staining were performed. In the immunohistochemical staining, anti-MAdCAM-1 and anti-β7integrin were used as primary antibodies and biotin-labeled FITC was employed as a secondary antibody.

β7 positive cells = test: Immunohistochemical staining (LSAB) of large intestine sections, DSS colitis, anti-β7integrin; assay type: in vivo, C57/BL6 Mice; conditions: large intestine frozen sections, DHNA administration group
Protocol: (§1) C57/BL6 Mice (female, 8 weeks old) were employed. They were bred under SPF conditions, and then used in the test.
(§2) 2.5% Dextran sodium sulfate (DSS, MW 50,000) was added to drinking water (distilled water) for mice, and the mice were allowed to drink the resultant water freely for 7 days (induction of colitis). Subsequently, DHNA was administered to the mice in the following manner.
(§3) DHNA was dissolved in dimethyl sulfoxide (DMSO) (0.1 g/0.5 mL). The resultant neat solution, along with ascorbic acid for stabilizing DHNA (1%), was added to drinking water (distilled water) for mice, and the mice were allowed to drink the resultant water freely for 7 days. DHNA concentration was 0.6 mg/kg or 2 mg/kg. Distilled water to which DMSO and ascorbic acid had been added in equal amounts was employed as a control group.
(§4) The large intestine was removed from each mouse, and fixed with periodate-lysine-paraformaldehyde (PLP), whereby frozen slices were prepared. Through use of the thus-obtained frozen sections, immunohistochemical staining using labeled streptavidin-biotin (LSAB) and HE-staining were performed. In the immunohistochemical staining, anti-MAdCAM-1 and anti-β7integrin were used as primary antibodies and biotin-labeled FITC was employed as a secondary antibody.

MAdCAM-1 = test: Immunohistochemical staining (LSAB) of large intestine sections, DSS colitis, anti-MAdCAM-1; assay type: in vivo, C57/BL6 Mice; conditions: large intestine frozen sections, DHNA administration group
Protocol: as §1, §2, §3, §4

Bifidobacterium bifidum = conditions: taught by WO03/016544; cited from earlier work
[2] = subject of milk intolerance; DHNA or its salts; taught by WO03/016544; cited from earlier work

## O=C(O)c1cc(O)c2ccccc2c1O [DHNA, 1,4-dihydroxy-2-naphthoic acid]
[1]; day 10 after starting the test, DHNA 0.6 mg/kg or 2 mg/kg in drinking water for 7 days after 2.5% DSS for 7 days, versus control group
  Survival rate: significantly high
[1]; large intestine, DHNA administration group versus control group
  HE-staining findings: ulcer and erosion in the epithelium, cellular infiltration, submucosal thickening: suppression of the above conditions was observed
[1]; overall conclusion, by suppressing infiltration of activated immunocytes
  Development of DSS enteritis: suppress development of DSS enteritis
β7 positive cells
  β7 positive cells (immunohistochemical staining): reduced
MAdCAM-1
  Expression of adhesion molecule MAdCAM-1: suppressed
Bifidobacterium bifidum
  Proliferation of Bifidobacterium bifidum: stimulating proliferation
[2]
  Abdominal discomfort after ingestion of milk: mitigate abdominal discomfort
